Peptide text beside a SMILES is read from it.

Series [1] has as its target T1, ABCA1 (Mus musculus, UniProt P41233).
T1 construct: endogenous in cells; host or cells: J774 murine macrophage cells, ABCA1 induced with 8-Br-cAMP and AcLDL
The series can be described thus: membrane ABCA1 stability testing in J774 cells. It is filed as cell-based, murine. As to conditions: 4 hours. Here is the method: FIGS. 33A-33C illustrate the results of membrane ABCA1 stability testing in J774 Cells. J774 murine macrophage cells were seeded at 50,000 cells per well on 12-well plates and were allowed to grow to confluence. A vehicle solution of 0.1% BSA in serum-free DMEM was prepared for control wells. An ABCA1 induction solution of 0.1% BSA with 1 mM 8-Br-CAMP and 50 μg/mL AcLDL was prepared in serum-free DMEM and incubated on cells overnight at 37° C. to increase ABCA1 protein levels on the membrane. A solution of 10 μM peptide was prepared in serum-free DMEM and serially diluted 1:10 for 4 concentrations. ApoAI was prepared at a concentration of 300 nM. Peptides or ApoA1 were added to cells for 4 hours at 37° C. before isolating membrane protein and measuring membrane ABCA1 levels by western blot. Blots were quantified in ImageJ and the signal was normalized to membrane Na+/K+ pump levels. Signals were further normalized to the 18-hour cAMP treated group to determine percent (%) Membrane ABCA1 remaining.

The test system of series [2] is ARPE-19 cells. The series can be described thus: ARPE-19 cell viability assay (Cell Titer Glo). Type of series: cell-based, human. As to conditions: 100 μM peptide, 1.5 hours. Put shortly: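 Adhered ARPE-19 cells exposed to 100 μM peptide (final) in serum-free DMEM:F12 for 1.5 h at 37° C, then washed. Viability by CellTiter-Glo 2.0 luminescence, background corrected, 0% set by 1% Triton-X-100; mean+SD of two runs.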
A general note: ATP-based viability assays read luminescence as a measure of living cells.

In series [3] the target is T2, LDLR (Homo sapiens, UniProt P01130). The series can be described thus: KD (µM). The text has this:
Table printed on a drawing sheet, FIG. 23
Title: Buffer: HBS + 0.05% P20
Head of the field: KD (µM)
The patent's description of the figure: FIG. 23 is a table showing the binding kinetics results of LDLR binding assays (SPR), high surfactant preparation as described herein for select peptides shown in FIG. 1A-1I.
First copying reader's note: Right of three side-by-side panels of FIG. 23; the KD cells hold value ± error together.
Where the first naming reader finds the target: description_of_the_figure: FIG. 23 is a table showing the binding kinetics results of LDLR binding assays (SPR), high surfactant preparation
Target sequence in this assay (P01130 22-860 limits assumed): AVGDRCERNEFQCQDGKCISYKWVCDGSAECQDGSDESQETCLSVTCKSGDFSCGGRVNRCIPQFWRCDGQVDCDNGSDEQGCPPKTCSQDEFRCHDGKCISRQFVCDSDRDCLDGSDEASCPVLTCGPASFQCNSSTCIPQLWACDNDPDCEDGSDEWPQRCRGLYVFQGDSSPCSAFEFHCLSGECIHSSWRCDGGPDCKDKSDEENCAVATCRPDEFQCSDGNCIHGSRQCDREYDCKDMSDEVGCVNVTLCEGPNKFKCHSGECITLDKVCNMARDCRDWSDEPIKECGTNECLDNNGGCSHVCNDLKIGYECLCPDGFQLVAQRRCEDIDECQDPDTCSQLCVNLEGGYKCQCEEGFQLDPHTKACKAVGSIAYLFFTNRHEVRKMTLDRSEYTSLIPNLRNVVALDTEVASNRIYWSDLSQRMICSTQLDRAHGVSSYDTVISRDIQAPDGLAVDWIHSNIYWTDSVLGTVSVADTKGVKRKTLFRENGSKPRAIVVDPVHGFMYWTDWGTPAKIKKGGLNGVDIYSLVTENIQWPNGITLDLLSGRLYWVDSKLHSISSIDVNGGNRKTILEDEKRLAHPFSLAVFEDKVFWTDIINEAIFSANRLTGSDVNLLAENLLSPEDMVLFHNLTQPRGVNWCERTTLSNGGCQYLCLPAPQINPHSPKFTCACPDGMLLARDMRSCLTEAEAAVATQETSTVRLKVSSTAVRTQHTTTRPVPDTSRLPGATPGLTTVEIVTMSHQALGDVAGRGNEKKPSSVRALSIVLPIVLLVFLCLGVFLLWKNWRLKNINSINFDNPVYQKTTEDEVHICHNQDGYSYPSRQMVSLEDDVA

Series [4] addresses T2, LDLR. The series can be described thus: LDLR binding (SPR), high surfactant preparation. As to conditions: high surfactant preparation (HBS-P+), 1:1 binding model; read-out: binding KD to LDLR. Put shortly:
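Multi-cycle kinetics fitted 1:1: peptide flowed at 30 μL/sec for 120 seconds over immobilised LDLR (amine coupling, CM5, 1000 RU) in running buffer HBS-P+ plus 1 mM CaCl2. Five concentrations per peptide, 1:3 serial from 5 μM; surface regenerated between cycles with 50 mM NaOH/100 mM EDTA.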
Target sequence in this assay (P01130 22-860): as the sequence (P01130 22-860 limits assumed) above

T1 sequence (P41233 whole entry): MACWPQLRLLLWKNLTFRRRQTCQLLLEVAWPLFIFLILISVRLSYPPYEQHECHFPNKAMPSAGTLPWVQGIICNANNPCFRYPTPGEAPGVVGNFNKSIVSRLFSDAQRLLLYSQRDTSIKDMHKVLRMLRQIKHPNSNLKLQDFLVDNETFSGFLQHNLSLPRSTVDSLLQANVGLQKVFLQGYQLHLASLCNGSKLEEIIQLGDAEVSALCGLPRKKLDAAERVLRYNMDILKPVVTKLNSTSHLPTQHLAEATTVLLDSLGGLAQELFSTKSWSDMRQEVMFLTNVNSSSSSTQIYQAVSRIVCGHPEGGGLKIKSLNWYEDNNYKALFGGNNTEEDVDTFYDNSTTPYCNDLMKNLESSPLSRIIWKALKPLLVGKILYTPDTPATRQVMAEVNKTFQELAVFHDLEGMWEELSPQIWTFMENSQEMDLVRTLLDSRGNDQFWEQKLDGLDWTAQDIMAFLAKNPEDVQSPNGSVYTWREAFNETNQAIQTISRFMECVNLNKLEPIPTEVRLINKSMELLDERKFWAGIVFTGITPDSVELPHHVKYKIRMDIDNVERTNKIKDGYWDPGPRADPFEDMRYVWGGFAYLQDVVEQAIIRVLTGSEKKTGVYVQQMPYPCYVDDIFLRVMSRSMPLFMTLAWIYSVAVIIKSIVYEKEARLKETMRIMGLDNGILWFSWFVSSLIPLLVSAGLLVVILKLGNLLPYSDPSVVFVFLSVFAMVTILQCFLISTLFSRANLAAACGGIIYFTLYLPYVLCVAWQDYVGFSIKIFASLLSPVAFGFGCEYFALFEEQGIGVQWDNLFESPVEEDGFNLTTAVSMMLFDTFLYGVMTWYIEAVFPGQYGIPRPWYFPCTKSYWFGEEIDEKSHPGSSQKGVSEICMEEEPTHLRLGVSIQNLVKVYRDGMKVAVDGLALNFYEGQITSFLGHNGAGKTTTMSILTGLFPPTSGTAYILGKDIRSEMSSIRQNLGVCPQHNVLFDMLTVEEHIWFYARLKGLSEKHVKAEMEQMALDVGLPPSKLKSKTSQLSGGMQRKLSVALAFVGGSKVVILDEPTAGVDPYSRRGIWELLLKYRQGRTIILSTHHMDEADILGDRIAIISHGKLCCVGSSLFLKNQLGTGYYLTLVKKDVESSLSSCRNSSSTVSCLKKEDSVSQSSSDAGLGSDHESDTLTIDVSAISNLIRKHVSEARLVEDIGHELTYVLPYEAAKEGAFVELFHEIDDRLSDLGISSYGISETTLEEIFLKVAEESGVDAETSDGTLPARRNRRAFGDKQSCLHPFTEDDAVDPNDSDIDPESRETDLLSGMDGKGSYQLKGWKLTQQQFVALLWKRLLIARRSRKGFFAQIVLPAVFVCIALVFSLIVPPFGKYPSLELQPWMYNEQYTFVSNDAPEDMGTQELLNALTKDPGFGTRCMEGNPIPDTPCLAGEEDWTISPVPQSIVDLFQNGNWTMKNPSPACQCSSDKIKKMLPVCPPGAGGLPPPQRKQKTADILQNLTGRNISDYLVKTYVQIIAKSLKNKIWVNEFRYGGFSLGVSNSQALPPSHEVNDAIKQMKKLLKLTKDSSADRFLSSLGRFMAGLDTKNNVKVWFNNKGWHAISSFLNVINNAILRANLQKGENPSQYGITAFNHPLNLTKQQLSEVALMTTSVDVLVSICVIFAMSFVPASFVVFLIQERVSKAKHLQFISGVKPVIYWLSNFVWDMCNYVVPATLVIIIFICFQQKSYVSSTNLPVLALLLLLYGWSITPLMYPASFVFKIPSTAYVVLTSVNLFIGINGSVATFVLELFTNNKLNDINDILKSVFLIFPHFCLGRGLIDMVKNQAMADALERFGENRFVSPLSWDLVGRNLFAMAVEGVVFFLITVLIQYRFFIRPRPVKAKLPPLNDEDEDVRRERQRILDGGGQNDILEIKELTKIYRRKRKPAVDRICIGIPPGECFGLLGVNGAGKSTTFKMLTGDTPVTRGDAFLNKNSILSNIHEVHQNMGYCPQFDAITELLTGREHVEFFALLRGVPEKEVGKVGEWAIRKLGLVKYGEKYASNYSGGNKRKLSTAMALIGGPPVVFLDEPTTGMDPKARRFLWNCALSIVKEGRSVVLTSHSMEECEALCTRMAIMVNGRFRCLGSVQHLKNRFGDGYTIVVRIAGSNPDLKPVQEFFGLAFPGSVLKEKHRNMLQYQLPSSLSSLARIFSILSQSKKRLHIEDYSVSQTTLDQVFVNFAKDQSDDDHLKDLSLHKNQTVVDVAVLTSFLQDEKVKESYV

In the case of “ApoA1: positive control protein ApoA1 (apolipoprotein A1)”, the “membrane ABCA1 levels after washout of 8-Br-cAMP” value in series [1] is listed as “preserved membrane ABCA1 levels”.

By Kd is commonly meant the equilibrium constant for the complex coming apart. In the case of `CC(C)C[C@H](NC(=O)[C@H](CC(=O)O)NC(=O)[C@H](CCCCN)NC(=O)CNC(=O)[C@H](Cc1ccc(O)cc1)NC(=O)[C@H](CC(=O)O)NC(=O)[C@@H](NC(=O)[C@@H](NC(=O)[C@@H](NC(=O)[C@H](CCC(N)=O)NC(=O)[C@H](Cc1ccccc1)NC(=O)[C@H](Cc1ccc(O)cc1)NC(=O)[C@H](CCC(N)=O)NC(=O)[C@H](CO)NC(=O)[C@@H](NC(=O)[C@H](CC(C)C)NC(=O)[C@H](CO)NC(=O)[C@H](CCCNC(=N)N)NC(=O)[C@H](CC(C)C)NC(=O)[C@H](CC(C)C)NC(=O)[C@H](CCCNC(=N)N)NC(=O)[C@H](CCCCN)NC(=O)[C@H](CCCNC(=N)N)NC(=O)[C@H](CC(C)C)NC(=O)[C@H](CCCCN)NC(=O)[C@H](CCCNC(=N)N)NC(=O)[C@H](CC(C)C)NC(=O)[C@@H](N)Cc1c[nH]cn1)C(C)C)[C@@H](C)O)C(C)C)[C@@H](C)O)C(=O)O` [T-109] (H-HLRKLRKRLLRSLVSQYFQTVTDYGKDL-OH), the ARPE-19 cell viability result in series [2] is “substantial change in viability”. Also, the values for the dissociation constant (Kd) in series [3] and in series [4] were 1200 ± 90 nM and less than 10000 nM, respectively.

For the origin of these results see patent publication US20260115250A1, “METHODS OF TREATING AGE-RELATED MACULAR DEGENERATION” (Character Biosciences, Inc., priority 2022, published 2026).
